Results: US6867192B1, “Compounds useful in the treatment of inflammatory diseases” (priority 1998, dated 2005)
pIC50: −log10 of the molar value. ≈ marks a conversion by molar mass, not a printed value. Where two headings read alike, the source gives them in different places.

Key:
[1] = system: CD4+ T-cells; experiment: CD3/VCAM-1 co-stimulation of T-lymphocyte proliferation; assay type: cell-based; conditions: T-cell; [3H] thymidine incorporation, 4 days incubation, anti-CD3/zzVCAM-1 coated plates
Procedure: (2) CD3/VCAM-1 Co-stimulation of T-Lymphocyte Proliferation
CD4^+ T-cells were purified from peripheral blood mononuclear cells by negative selection with anti-CD14, CD19, CD16 and HLA.DR antibodies and Dynal beads. Flat bottomed 96-well tissue culture plates were coated with 1 μg ml^−1 anti-CD3 antibody (OKT3), washed and incubated with human IgG and zzVCAM-1 fusion proteins. The CD4^+ T cells (prepared in RPMI-1640 medium supplemented with 10% FCS, penicillin or streptomycin and L-glutamine) were added to the coated plates (1×10^5 cells well^−1) and incubated in the presence or absence of various doses of compound or blocking antibodies for 4 days. Radiolabelled thymidine [^3H] was added for the final 6 hours of incubation and the cells were then harvested using a Skatron plate harvester. Incorporation of the [^3H] label was measured as an indicator of T cell proliferation using a β plate counter. Compounds were assayed in triplicate and data was collected in an analogous procedure to that described for Assay (1).

[2] = system: ovalbumin sensitised guinea pigs; experiment: Inhibition of eosinophil infiltration and hyper-reactivity in the guinea pig; assay type: in vivo; conditions: Cavia porcellus, Eosinophil, inhaled or nasal, 24 h, 0.5 hours before and 6 hours after antigen challenge; for inhibition in vivo at 0.0002 mg/kg: intratracheal dose 0.2 μg/kg body weight; for inhibition in vivo at 0.002 mg/kg: intratracheal dose 2 μg/kg body weight
Procedure: (3) Inhibition of Eosinophil Infiltration and Hyper-Reactivity in the Guinea Pig
In a method based on that described by Danahay et al., 1997, ovalbumin sensitised guinea pigs were dosed with mepyramine (30 mg kg^−1 ip) to protect against anaphylactic bronchospasm. Test compounds, dissolved in 0.9% saline, were given by the inhaled route (30 minutes breathing of an aerosol of the compound) or the intra-tracheal route, 30 minutes before and 6 hours after ovalbumin challenge (10 minutes breathing of an aerosol generated from a 0.5% solution of ovalbumin). Hyper-reactivity of the airways to the thromboxane mimetic U46619, was measured 24 hours after ovalbumin challenge in un-restrained animals using a whole body plethysmograph (Buxco Ltd., USA). The guinea pigs were then sacrificed and the lungs lavaged. Total and differential leukocyte counts were then obtained for the bronchoalveolar lavage fluid and the percentage reduction in eosinophil accumulation determined (Sanjar et al., 1992). Dexamethasone (200 μg kg^−1 i.t) was used as a positive control. Data was presented as the inhibitory effect of the specified dose expressed as a percentage of the vehicle control response.

[3] = Solubility in water; assay type: physicochemical
[4] = airway hyper-reactivity to U46619, read-out: % Inhibition Hyper-reactivity
[5] = read-out: % Inhibition Eosinophil Accumulation

| solubility [3] | SMILES | pIC50 [1] | inhibition in vivo at 0.0002 mg/kg [2, 4] | inhibition in vivo at 0.0002 mg/kg [2, 5] | inhibition in vivo at 0.002 mg/kg [2, 4] | inhibition in vivo at 0.002 mg/kg [2, 5] |
| --- | --- | --- | --- | --- | --- | --- |
| – | CC(=O)N1CCN(C(=O)Oc2ccc(C[C@H](NC(=O)[C@H](CC(C)C)NC(=O)COc3ccccc3C(C)(C)C)C(=O)O)cc2)CC1 [Example 16, (2S)-3-(4-{[(4-Acetyl-1-piperazinyl)carbonyl]oxy}phenyl)-2-{[(2S)-2-({2-[2-(tert-butyl)phenoxy]acetyl}amino)-4-methylpentanoyl]amino}propanoic acid] | 7.40 | 80% | 62% | 95% | 78% |
| – | CC(=O)N1CCN(C(=O)Oc2ccc(C[C@H](NC(=O)[C@H](CC(C)C)NC(=O)COc3ccccc3C)C(=O)O)cc2)CC1 [Example 17, (2S)-3-(4-{[(4-Acetyl-1-piperazinyl)carbonyl]oxy}phenyl)-2-[((2S)-4-methyl-2-{[2-(2-methylphenoxy)acetyl]amino}pentanoyl)amino]propanoic acid] | 7.50 | 58% | 68% | 88% | 61% |
| – | CC(C)C[C@H](NC(=O)COc1ccccc1C(C)(C)C)C(=O)N[C@@H](Cc1ccc(OC(=O)N2CCN(C(=O)c3ccccc3)CC2)cc1)C(=O)O [Example 20, (2S)-3-(4-{[(4-Benzoyl-1-piperazinyl)carbonyl]oxy}phenyl)-2-{[(2S)-2-({2-[2-(tert-butyl)phenoxy]acetyl}amino)-4-methylpentanoyl]amino}propanoic acid] | 6.90 | 85% | 67% | 100% | 79% |
| – | Cc1ccccc1OCC(=O)N[C@@H](CC(C)C)C(=O)N[C@@H](Cc1ccc(OC(=O)N2CCN(C(=O)c3ccccc3)CC2)cc1)C(=O)O [Example 21, (2S)-3-(4-{[(4-Benzoyl-1-piperazinyl)carbonyl]oxy}phenyl)-2-[((2S)-4-methyl-2-{[2-(2-methylphenoxy)acetyl]amino}pentanoyl)amino]propanoic acid] | 6.90 | 82% | 49% | 85% | 79% |
| – | CC(C)C[C@H](NC(=O)COc1ccccc1I)C(=O)N[C@@H](Cc1ccc(OC(=O)N2CCOCC2)cc1)C(=O)O [Example 23, (2S)-2-[((2S)-2-{[2-(2-Iodophenoxy)acetyl]amino}-4-methylpentanoyl)amino]-3-{4-[(4-morpholinylcarbonyl)oxy]phenyl}propanoic acid] | 6.90 | – | – | 79% | 51% |
| – | CC(C)C[C@H](NC(=O)COc1ccccc1C(C)(C)C)C(=O)N[C@@H](Cc1ccc(OC(=O)N2CCOCC2)cc1)C(=O)O [Example 24, (2S)-2-{[(2S)-2-({2-[2-(Tert-butyl)phenoxy]acetyl}amino)-4-methylpentanoyl]amino}-3-{4-[(4-morpholinylcarbonyl)oxy]phenyl}propanoic acid] | 7.10 | 44% | 26% | 85% | 77% |
| 10 µg/mL (≈ 16.8 µM) | Cc1ccccc1OCC(=O)N[C@@H](CC(C)C)C(=O)N[C@@H](Cc1ccc(OC(=O)N2CCC(C(N)=O)CC2)cc1)C(=O)O [Example 27, (2S)-3-[4-({[4-(Aminocarbonyl)-1-piperidinyl]carbonyl}oxy)phenyl]-2-[((2S)-4-methyl-2-{[2-(2-methylphenoxy)acetyl]amino}pentanoyl)amino]propanoic acid] | 7.50 | 88% | 58% | 87% | 90% |
| – | CC(C)C[C@H](NC(=O)c1cccc2c1oc1ccccc12)C(=O)N[C@@H](Cc1ccc(OC(=O)N2CCC(C(N)=O)CC2)cc1)C(=O)O [Example 28, (2S)-3-[4-({[4-(Aminocarbonyl)-1-piperidinyl]carbonyl}oxy)phenyl]-2-({(2S)-2-[(dibenzo[b,d]furan-4-ylcarbonyl)amino]-4-methylpentanoyl}amino)propanoic acid] | 6.80 | 70% | 3% | 47% | 62% |
